Assay results published in publication PMC10771525 (Communications Biology, 2024).
One block for each molecule: values may come before it.

Tests used:
LTB4R = LTB4R (Homo sapiens, UniProt Q15722); experiment: GPCR panel (control), Arrestin, CHO-K1; type: cell-based; settings: reference agonist
OXTR = target: T1, OXTR (Homo sapiens, UniProt P30559); experiment: GPCR panel (control), Arrestin, CHO-K1; type: cell-based; settings: reference agonist
T1 construct: expressed in transfected cells; host or cells: CHO-K1

HTR2A = HTR2A (Homo sapiens, UniProt P28223); settings: reference agonist, U2OS, Arrestin
HTR1F = HTR1F (Homo sapiens, UniProt P30939); experiment: GPCR panel (control), Arrestin, U2OS; type: cell-based; settings: reference agonist
HTR1E = HTR1E (Homo sapiens, UniProt P28566); experiment: GPCR panel (control), Arrestin, U2OS; type: cell-based; settings: reference agonist
HTR5A = HTR5A (Homo sapiens, UniProt P47898); experiment: GPCR panel (control), Arrestin, U2OS; type: cell-based; settings: reference agonist
HTR1B = HTR1B (Homo sapiens, UniProt P28222); experiment: GPCR panel (control), Arrestin, U2OS; type: cell-based; settings: reference agonist
AGTR1 = AGTR1 (Homo sapiens, UniProt P30556); settings: reference agonist, AGTR1, CHO-K1, Arrestin
MRGPRX2 [1] = settings: MRGPRX2 recombinantly expressed in HEK293 cells; read-out: EC50, calcium mobilization assays; cited from earlier work
Excerpt: Other CXCLs contain sequences that are similar to the proposed pentapeptidic motif, but are either deeply buried in the typical 3D structure of the chemokine, or located near acidic amino acids, that are not tolerated by the negatively charged binding pocket of MRGPRX2 (see sequence alignment in Supplementary Fig. 4 for further information). […] No ...

MRGPRX2 [2] = target: T2, MRGPRX2 (Homo sapiens, UniProt Q96LB1); experiment: GPCR panel (control), Arrestin, CHO-K1; type: cell-based; settings: reference agonist
T2 sequence (Q96LB1 1-330): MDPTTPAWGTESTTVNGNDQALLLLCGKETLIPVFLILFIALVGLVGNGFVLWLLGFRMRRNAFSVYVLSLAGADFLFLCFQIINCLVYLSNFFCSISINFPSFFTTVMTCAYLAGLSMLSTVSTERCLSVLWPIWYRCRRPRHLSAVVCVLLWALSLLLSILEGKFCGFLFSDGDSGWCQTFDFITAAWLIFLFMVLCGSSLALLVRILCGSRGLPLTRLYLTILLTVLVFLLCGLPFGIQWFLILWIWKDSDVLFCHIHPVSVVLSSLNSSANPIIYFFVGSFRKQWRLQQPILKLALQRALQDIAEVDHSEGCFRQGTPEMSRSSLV

MC3R = MC3R (Homo sapiens, UniProt P41968); settings: reference agonist, CHO-K1, Arrestin
MC1R = MC1R (Homo sapiens, UniProt Q01726); settings: reference agonist, CHO-K1, Arrestin
MC5R = MC5R (Homo sapiens, UniProt P33032); settings: reference agonist, CHO-K1, Arrestin
MLNR = target: T3, MLNR (Homo sapiens, UniProt O43193); experiment: GPCR panel (control), Arrestin, CHO-K1; type: cell-based; settings: reference agonist
T3 construct: expressed in transfected cells; host or cells: CHO-K1

NMU1R = target: T4, NMU1R (Homo sapiens, UniProt Q9HB89); experiment: GPCR panel (control), Arrestin, U2OS; type: cell-based; settings: reference agonist
T4 construct: expressed in transfected cells; host or cells: U2OS

OPRL1 = OPRL1 (Homo sapiens, UniProt P41146); settings: reference agonist, OPRL1, CHO-K1, Arrestin
PPYR1 (NPY4) = target: T5, PPYR1 (NPY4) (Homo sapiens, UniProt P50391); experiment: GPCR panel (control), Arrestin, CHO-K1; type: cell-based; settings: reference agonist
T5 construct: expressed in transfected cells; host or cells: CHO-K1

OPRM1 = OPRM1 (Homo sapiens, UniProt P35372); settings: reference agonist, OPRM1, U2OS, Arrestin
MRGPRX2 [3] = target: T2, MRGPRX2; experiment: calcium mobilization assay, LN229 cells recombinantly expressing MRGPRX2; type: cell-based; settings: Fluo-4, means ± SD of 3 to 4 independent experiments in duplicates, read-out: EC50 ± SD, calcium mobilization assays
Method: LN229 glioblastoma cells ATCC®, CRL-2611TM, were a kind gift from Prof. Dr. B. Scheffler (University of Bonn, Germany). LN229 cells stably expressing MRGPRX2 were generated by retroviral transfection. Briefly, GP^+envAM-12 packaging cells (LGC Standards GmbH, Wesel, Germany), derived from mouse fibroblasts, were seeded at a density of 1.5 × 10^6 cells per T25-flask in 5 mL of Dulbecco’s Modified Eagle Medium (DMEM, Thermo Fisher Scientific, Waltham, MA, USA), supplemented with 10% fetal calf serum (FCS), 100 U/mL of penicillin (PAN-Biotech) and 100 µg/mL of streptomycin (PAN-Biotech). Packaging cells were transfected with pLXSN-MRGPRX2 and pcDNA3-VSV-G using Lipofectamine 2000 according to the manufacturer’s instructions (Thermo Fisher Scientific, Darmstadt, Germany). The medium was exchanged for DMEM supplemented with 10% FCS, 100 U/mL of penicillin, 100 µg/mL of streptomycin and 3 mM of sodium butyrate (stock solution: 500 mM in water, sterile-filtered) to enhance virus production. To produce retroviral particles, cells were cultivated for 48 h at 32°C and 5% CO2. On day 4, the target cells LN229 were seeded into T25 cell culture flasks (5 × 10^5 cell). […]
(§1) […]. […] For the determination of baseline fluorescence, HBSS buffer without additives was used. […]

MRGPRB2 = target: T6, MRGPRB2 (Mus musculus, UniProt Q3KNA1); experiment: calcium mobilization assay, 1321N1 astrocytoma cells stably expressing MRGPRB2; type: cell-based
T6 construct: expressed in transfected cells; host or cells: 1321N1 astrocytoma cells (lentiviral, pLVX MRGPRB2-IRES-mCherry)
T6 sequence (Q3KNA1 1-338): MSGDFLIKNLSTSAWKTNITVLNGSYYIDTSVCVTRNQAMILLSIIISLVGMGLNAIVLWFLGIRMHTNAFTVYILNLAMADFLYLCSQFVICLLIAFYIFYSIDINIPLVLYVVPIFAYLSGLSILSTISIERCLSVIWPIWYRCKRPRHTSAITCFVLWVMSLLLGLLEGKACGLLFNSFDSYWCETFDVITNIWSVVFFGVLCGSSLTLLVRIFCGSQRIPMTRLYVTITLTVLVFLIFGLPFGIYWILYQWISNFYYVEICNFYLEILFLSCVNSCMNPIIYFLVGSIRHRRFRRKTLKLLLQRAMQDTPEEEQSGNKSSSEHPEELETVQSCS
Method: 1321N1 Astrocytoma cells were purchased from Sigma Aldrich-Merck KGaA (Darmstadt, Germany, 86030402). The cells were transfected with MRGPRB2 using lentiviral transfection. 1.5 × 10^6 Lenti-X 293 T cells were seeded into each T25 cell culture flask in 5 mL of DMEM, supplemented with 10% FCS, 100 U/mL of penicillin and 100 µg/mL of streptomycin. After 20 h of incubation at 37°C and 5% CO2, when the cells were grown to 80–90% confluence, the medium was exchanged for 5 mL DMEM with 10% FCS without antibiotics and incubated for 4 h. Subsequently, transfection took place using Xfect polymer according to the manufacturer’s protocol (Clontech, Takara Bio Europe, France). The pLVX MRGPRB2-IRES-mCherry-Xfect mixture was added to the packaging cells and they were incubated overnight. […] To know how many astrocytoma cells expressed the target receptor, cells were analyzed under the fluorescence microscope at the m-cherry excitation wavelength of 587 nm using its emission wavelength of 610 nm. Subsequently, fluorescent single clones were isolated by fluorescence-activated cell sorting.
as §1

MRGPRX2 [4] = target: T2, MRGPRX2; experiment: calcium mobilization assay, CHEM-1 cells recombinantly expressing MRGPRX2; type: cell-based; design: host or cells: CHEM-1 adherent rat hematopoietic cells; settings: for pEC50: Fig. 3d
Excerpt: To confirm the initial results obtained in the β-arrestin recruitment assays, we established calcium mobilization assays in two different recombinant cell lines, CHEM-1 and LN229 cells, respectively. CHEM-1 cells are adherent rat hematopoietic cells with a high endogenous expression level of the promiscuous Gα15 protein enabling the measuring of calcium signaling of a large variety of GPCRs. […]. Subsequently, we employed recombinant human glioblastoma LN229 cells, a human cell line derived from glioblastoma multiforme tumors. […].
The cell lines CHEM1 and CHEM1-MRGPRX2 are adherent rat cell lines (HTSCHEM-1RTA, HTS058RTA, Merck-Millipore, Darmstadt, Germany); which were cultured under standard cell culture conditions.
A cell-based fluorometric assay was employed for the determination of intracellular calcium release using Fluo-8. Cells were seeded into microtiter plates and incubated under standard cell culture conditions. After 24 h the medium was removed, and the cells were washed with phosphate-buffered saline (PBS). The cells were incubated with loading buffer (40 ml PBS with 2 mM Ca^2+, 800 µl of brilliant black solution (2%), 732 µl of probenecid solution (0.5 M) in 1 N NaOH, 400 µL of pluronic (10%) in water, and 152 µl of Fluo-8 (5.7 ng/ml in water)) for 30 min. For fluorescence readout and compound testing a FLIPR tetra system was used according to the manufacture’s protocol (Molecular Devices, CA 94089- 1136, USA).

MRGPRX2 [5] = target: T2, MRGPRX2; experiment: β-arrestin recruitment assay (enzyme complementation), β-arrestin-CHO cells recombinantly expressing MRGPRX2; type: cell-based; settings: 90 min incubation, chemiluminescence, means ± SD of 3 to 5 independent experiments in duplicates, read-out: EC50 ± SD, β-arrestin assays

Sequence of HTR1E (P28566 whole entry): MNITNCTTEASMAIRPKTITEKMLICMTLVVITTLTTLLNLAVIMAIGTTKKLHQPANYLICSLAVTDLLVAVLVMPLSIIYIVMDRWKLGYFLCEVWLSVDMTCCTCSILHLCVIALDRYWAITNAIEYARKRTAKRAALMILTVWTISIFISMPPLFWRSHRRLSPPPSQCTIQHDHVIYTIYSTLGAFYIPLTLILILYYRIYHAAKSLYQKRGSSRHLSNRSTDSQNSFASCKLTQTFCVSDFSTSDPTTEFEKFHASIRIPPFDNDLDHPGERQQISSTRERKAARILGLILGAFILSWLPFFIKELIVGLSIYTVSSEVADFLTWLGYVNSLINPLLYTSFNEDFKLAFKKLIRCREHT
Sequence of MC5R (P33032 whole entry): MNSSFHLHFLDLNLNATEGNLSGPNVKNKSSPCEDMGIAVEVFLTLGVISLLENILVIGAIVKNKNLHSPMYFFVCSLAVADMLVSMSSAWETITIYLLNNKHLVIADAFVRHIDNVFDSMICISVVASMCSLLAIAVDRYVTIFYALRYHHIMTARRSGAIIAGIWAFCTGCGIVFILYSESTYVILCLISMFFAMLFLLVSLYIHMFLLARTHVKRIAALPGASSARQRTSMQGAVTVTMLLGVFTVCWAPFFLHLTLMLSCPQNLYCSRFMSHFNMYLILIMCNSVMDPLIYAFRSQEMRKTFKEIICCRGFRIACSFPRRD
Sequence of LTB4R (Q15722 whole entry): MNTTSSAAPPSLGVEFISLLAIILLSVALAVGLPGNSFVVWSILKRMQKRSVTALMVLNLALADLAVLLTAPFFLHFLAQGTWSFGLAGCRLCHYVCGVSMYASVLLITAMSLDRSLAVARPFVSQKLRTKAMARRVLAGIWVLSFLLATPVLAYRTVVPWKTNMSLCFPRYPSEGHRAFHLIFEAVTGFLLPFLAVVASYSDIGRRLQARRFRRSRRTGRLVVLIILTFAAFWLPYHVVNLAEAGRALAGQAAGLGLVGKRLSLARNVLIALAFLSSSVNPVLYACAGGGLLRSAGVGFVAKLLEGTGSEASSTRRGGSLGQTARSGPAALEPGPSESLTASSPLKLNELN
T1 sequence (P30559 whole entry): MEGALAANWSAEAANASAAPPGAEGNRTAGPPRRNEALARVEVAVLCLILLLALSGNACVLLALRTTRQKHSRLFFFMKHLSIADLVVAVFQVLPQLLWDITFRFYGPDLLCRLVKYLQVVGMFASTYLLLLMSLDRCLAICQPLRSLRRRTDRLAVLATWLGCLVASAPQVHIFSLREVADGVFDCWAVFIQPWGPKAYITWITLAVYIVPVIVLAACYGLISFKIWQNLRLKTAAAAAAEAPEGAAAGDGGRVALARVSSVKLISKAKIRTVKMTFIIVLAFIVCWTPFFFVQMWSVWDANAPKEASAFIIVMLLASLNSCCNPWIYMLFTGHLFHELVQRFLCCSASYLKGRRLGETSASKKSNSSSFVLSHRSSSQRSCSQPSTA
Sequence of MC1R (Q01726 whole entry): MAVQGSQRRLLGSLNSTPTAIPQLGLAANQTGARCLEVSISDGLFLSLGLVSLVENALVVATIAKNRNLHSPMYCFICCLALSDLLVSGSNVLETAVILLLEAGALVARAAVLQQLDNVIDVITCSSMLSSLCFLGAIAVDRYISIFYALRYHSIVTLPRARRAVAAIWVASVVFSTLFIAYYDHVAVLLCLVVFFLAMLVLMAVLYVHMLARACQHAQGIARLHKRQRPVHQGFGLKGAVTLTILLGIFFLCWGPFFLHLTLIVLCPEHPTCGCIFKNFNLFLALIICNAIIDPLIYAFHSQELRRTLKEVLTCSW
T4 sequence (Q9HB89 whole entry): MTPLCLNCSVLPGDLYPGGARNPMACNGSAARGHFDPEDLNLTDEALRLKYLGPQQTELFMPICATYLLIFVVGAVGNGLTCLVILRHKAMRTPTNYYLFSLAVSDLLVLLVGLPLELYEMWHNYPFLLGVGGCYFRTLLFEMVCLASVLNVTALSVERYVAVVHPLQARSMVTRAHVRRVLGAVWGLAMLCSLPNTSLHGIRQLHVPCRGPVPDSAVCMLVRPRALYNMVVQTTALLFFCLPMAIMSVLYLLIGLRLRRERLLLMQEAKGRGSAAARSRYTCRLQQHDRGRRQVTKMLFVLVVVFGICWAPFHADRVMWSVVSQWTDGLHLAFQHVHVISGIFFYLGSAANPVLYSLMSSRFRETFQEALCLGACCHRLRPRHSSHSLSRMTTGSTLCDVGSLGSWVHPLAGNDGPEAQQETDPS
Sequence of OPRM1 (P35372 whole entry): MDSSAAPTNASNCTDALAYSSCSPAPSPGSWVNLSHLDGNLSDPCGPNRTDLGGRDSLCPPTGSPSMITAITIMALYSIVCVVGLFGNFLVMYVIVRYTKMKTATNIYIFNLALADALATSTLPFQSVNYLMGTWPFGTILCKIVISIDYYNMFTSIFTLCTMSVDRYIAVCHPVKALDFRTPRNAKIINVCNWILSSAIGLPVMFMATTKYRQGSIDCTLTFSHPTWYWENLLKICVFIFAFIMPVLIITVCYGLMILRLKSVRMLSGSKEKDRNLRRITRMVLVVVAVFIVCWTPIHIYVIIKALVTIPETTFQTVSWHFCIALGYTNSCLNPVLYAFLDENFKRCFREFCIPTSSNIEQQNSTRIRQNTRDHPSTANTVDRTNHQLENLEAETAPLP
Sequence of AGTR1 (P30556 whole entry): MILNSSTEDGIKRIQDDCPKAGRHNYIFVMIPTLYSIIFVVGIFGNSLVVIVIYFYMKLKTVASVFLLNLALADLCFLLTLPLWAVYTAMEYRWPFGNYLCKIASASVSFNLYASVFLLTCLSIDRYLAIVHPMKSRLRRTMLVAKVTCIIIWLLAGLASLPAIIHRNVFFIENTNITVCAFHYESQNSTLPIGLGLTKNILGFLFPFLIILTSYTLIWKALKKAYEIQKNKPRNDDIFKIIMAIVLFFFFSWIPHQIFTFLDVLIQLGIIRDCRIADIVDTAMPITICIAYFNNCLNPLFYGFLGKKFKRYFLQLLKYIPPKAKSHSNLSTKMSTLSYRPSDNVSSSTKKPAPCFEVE
Sequence of OPRL1 (P41146 whole entry): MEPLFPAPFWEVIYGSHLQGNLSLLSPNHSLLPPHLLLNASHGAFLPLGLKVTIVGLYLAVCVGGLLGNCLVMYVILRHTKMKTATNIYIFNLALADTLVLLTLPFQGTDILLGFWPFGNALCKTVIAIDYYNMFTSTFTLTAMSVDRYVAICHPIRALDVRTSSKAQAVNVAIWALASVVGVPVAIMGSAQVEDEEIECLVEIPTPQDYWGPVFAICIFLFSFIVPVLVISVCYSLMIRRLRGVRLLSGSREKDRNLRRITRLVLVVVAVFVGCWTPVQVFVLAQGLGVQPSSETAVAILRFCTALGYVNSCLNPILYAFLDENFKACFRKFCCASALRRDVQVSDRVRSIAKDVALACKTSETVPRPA
Sequence of HTR5A (P47898 whole entry): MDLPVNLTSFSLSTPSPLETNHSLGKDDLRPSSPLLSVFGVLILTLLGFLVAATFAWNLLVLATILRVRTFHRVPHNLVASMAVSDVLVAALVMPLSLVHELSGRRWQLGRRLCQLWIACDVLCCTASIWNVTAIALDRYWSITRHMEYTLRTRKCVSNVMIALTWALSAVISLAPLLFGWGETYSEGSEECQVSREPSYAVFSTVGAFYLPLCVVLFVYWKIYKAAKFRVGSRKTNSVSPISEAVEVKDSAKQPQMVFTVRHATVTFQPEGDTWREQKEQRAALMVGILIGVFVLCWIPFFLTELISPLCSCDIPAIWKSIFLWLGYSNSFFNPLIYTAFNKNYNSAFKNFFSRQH
Sequence of MC3R (P41968 whole entry): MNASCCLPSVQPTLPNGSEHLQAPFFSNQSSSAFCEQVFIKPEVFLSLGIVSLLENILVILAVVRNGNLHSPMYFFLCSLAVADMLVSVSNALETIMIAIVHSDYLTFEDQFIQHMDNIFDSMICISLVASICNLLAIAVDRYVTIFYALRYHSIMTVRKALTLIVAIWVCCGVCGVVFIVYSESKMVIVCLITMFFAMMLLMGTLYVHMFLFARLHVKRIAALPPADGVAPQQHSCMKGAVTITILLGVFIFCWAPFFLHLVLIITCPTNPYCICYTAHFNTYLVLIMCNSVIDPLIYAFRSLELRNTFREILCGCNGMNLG
Sequence of HTR1F (P30939 whole entry): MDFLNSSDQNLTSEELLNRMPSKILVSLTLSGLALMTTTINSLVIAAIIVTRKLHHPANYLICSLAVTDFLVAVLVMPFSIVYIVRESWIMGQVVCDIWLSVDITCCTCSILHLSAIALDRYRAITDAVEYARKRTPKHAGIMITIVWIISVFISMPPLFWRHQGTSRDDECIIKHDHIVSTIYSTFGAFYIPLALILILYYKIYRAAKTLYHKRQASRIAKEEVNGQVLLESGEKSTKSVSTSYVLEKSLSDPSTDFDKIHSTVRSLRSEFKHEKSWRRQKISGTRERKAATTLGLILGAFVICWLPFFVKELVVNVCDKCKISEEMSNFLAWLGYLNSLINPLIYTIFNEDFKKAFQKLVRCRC
Sequence of HTR1B (P28222 whole entry): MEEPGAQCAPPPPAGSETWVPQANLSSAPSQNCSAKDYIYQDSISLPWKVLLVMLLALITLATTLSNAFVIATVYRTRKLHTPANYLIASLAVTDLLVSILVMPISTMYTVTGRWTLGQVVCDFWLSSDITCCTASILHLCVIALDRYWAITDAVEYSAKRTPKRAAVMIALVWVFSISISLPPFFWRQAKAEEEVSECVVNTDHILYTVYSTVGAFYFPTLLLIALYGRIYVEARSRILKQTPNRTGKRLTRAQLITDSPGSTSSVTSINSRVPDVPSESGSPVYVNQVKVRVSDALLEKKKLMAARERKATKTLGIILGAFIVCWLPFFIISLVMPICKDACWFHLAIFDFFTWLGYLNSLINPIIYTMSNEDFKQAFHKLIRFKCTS

EC80 (LTB4R): 5000 nM
Molecule: CCCCC/C=C\C[C@@H](O)/C=C/C=C/C=C\[C@@H](O)CCCC(=O)O [Leukotriene B4]

EC80 (OXTR): 280 nM
Molecule: CC[C@H](C)[C@@H]1NC(=O)[C@H](Cc2ccc(O)cc2)NC(=O)[C@@H](N)CSSC[C@@H](C(=O)N2CCC[C@H]2C(=O)N[C@@H](CC(C)C)C(=O)NCC(N)=O)NC(=O)[C@H](CC(N)=O)NC(=O)[C@H](CCC(N)=O)NC1=O [Oxytocin]

Molecule: NCCc1c[nH]c2ccc(O)cc12 [Serotonin]
EC80 (HTR2A): 7100 nM
EC80 (HTR1F): 6600 nM
EC80 (HTR1E): 1300 nM
EC80 (HTR5A): 630 nM
EC80 (HTR1B): 7700 nM

Molecule: Angiotensin II
EC80 (AGTR1): 150 nM

Molecule: CXCL4: chemokine, also known as platelet factor 4
EC50 (MRGPRX2 [1]): 9000 nM

EC80 (MRGPRX2 [2]): 8100 nM
Molecule: Cortistatin-14

Molecule: Melanotan II
EC80 (MC3R): 37 nM
EC80 (MC1R): 30 nM
EC80 (MC5R): 340 nM

Molecule: Motilin
EC80 (MLNR): 110 nM

EC80 (NMU1R): 92 nM
Molecule: Neuromedin U-25

Molecule: Orphanin FQ
EC80 (OPRL1): 150 nM

Molecule: Pancreatic polypeptide
EC80 (PPYR1 (NPY4)): 62 nM

Molecule: met-Enkephalin
EC80 (OPRM1): 54000 nM

EC50 (MRGPRX2 [3]): 504 nM
pEC50 MRGPRB2 (MRGPRB2; Fig. 6c source data, mean, SD and N in columns beside it (N = 2-3)): 6.032
Mean of MRGPRB2 (pEC50) (MRGPRB2; Fig. 6c, mean as listed in the unpaired t test with Welch correction, MRGPRX2 vs. MRGPRB2): 6.03
EC50 (MRGPRX2 [4]; CHEM-1 cells recombinantly expressing MRGPRX2, Fluo-8, FLIPR, read-out: EC50, calcium mobilization assays): 889 nM
pEC50 (MRGPRX2 [4]; replicate column 1): 5.955
pEC50 (MRGPRX2 [4]; replicate column 2): 6.033
pEC50 (MRGPRX2 [4]; replicate column 3): 6.061
pEC50 (MRGPRX2 [4]; replicate column 4): 6.051
EC50 (MRGPRX2 [5]): 905 ± 548 nM
B1: CXCL14: mature 77-amino acid chemokine, 9.4 kDa, also known as BRAK; purchased from BIOZOL (protein)
chain: SKCKCSRKGPKIRYSDVKKLEMKPKYPHCEEKMVIITTKSVSRYRGQEHCLHPKLQSTKRFIKWYNAWNEKRRVYEE
modifications: two disulfide bonds (native chemokine fold); entity numbering = mature + 1
